Test results taken from patent EP4786466A1, “QUINAZOLINE DERIVATIVE, SALT THEREOF, AND PHARMACEUTICAL COMPOSITION COMPRISING SAME AS ACTIVE INGREDIENT” (Korea Research Institute of Chemical Technology, priority 2023, dated 2025).
Like-named read-outs stand apart in the source and are kept apart here.

Assays:
[1] = molecular target: T1, Recombinant GST-TAG-MASTL (Homo sapiens, UniProt Q96GX5); assay: HTRF-based kinase assay (HTRF KinEASE assay kit); type: biochemical; settings: for activity at 1 µM: read-out: MASTL activity (%) HTRF (1 µM); for activity at 10 µM: footnote b: concentration 10 µM
T1 construct: GST; purchased Thermo Fisher Scientific
T1 sequence (Q96GX5 1-879): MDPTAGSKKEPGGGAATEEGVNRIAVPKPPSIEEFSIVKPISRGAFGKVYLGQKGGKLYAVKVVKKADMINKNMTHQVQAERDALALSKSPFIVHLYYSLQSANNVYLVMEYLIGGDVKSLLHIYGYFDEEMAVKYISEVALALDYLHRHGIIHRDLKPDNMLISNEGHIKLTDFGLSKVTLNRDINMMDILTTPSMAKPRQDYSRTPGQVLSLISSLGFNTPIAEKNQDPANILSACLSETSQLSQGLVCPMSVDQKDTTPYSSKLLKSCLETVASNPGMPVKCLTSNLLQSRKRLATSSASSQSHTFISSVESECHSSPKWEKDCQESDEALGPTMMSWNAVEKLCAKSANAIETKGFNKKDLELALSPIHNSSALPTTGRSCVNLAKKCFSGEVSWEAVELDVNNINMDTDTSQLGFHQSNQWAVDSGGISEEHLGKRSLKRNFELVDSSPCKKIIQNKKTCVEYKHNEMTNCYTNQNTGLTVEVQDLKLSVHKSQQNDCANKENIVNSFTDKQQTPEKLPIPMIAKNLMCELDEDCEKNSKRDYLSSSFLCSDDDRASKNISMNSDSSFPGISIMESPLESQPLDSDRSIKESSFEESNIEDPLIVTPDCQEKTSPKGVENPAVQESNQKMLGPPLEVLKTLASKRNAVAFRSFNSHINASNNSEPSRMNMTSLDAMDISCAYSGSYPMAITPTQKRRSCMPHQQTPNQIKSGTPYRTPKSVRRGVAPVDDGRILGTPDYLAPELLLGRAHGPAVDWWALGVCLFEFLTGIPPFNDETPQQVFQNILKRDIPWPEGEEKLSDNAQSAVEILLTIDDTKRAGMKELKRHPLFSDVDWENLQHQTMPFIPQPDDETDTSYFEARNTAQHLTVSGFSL
Description: Recombinant GST-TAG-MASTL (Thermo Fisher Scientific, MA, USA) was used for HTRF-based kinase assays. The HTRF KinEASE assay kit (CisBio, MA, USA) was used according to the manufacturer's instructions.

pENSA = pENSA level by immunofluorescence (described method: in vitro kinase analysis with GST-tag-MASTL and His-tag-ENSA); type: cell-based; settings: for pENSA (%) Immunofluor ecense (1 µM): compound 1 µM
Outline: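 In vitro kinase reaction using recombinant GST-tagged MASTL with His-tagged ENSA as substrate; phosphorylated ENSA (pENSA) serves as read-out of MASTL activity. Cell lines named: MCF7 breast cancer and MCF10A.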

in vitro = settings: human
Description: (§1) MCF7 breast cancer cell lines and MCF10A normal breast cancer cell lines were treated with serial dilutions of the compounds of the present invention ranging from 1 µM to 15.63 nM for 72 hours. Cell viability was measured by the WST-8 assay (Cyto XTM cell viability assay kit; LPS solution, Daejeon, Korea) according to the manufacturer's instructions.

[2] = tested on: MCF7 breast cancer cell lines; assay: Cell viability analysis, WST-8 assay, MCF7; settings: Homo sapiens, MCF7, 72 h; for viability at 1 µM: read-out: Cell viability (%) WST-8, MCF7 (1 µM), compound 1 µM, 72 hours; for viability at 1.25 µM: read-out: Cell viability (%) WST-8, MCF7, footnote a: concentration 1.25 µM, 72 hours; for viability at 1.1 µM: read-out: Cell viability (%) WST-8, MCF7, footnote d: concentration 1.1 µM, 72 hours
Description: as §1

[3] = tested on: MCF10A normal breast cell lines; assay: Cell viability analysis, WST-8 assay, MCF10A; settings: Homo sapiens, MCF-10A, 72 h
Description: as §1

[4] = read-out: IC50 Cell viability (MCF7)
[5] = read-out: IC50 Cell viability (MCF10A)
[6] = HTRF, read-out: IC50(nM) MASTL activity
[7] = read-out: MASTL activity (%) HTRF
[8] = read-out: IC50(nM) Cell viability (MCF7)
[9] = read-out: IC50(nM) Cell viability (MCF10A)
[10] = HTRF, unit µM, read-out: IC50 MASTL activity

SMILES | pENSA (%) Immunofluor ecense (1 µM) (pENSA) | viability at 1 µM (in vitro; mcf10a cells) | viability at 1 µM [2] | IC50 [2, 4] | IC50 [3, 5] | IC50 [1, 6] | activity at 10 µM [1, 7] | IC50 (pENSA; read-out: IC50(nM) pENSA) | viability at 1.25 µM [2] | viability at 1.25 µM (in vitro; mcf10a cells) | IC50 [2, 8] | IC50 [3, 9] | activity at 1 µM ([1]; compound 1 µM) | other results
NCCCNC(=O)c1ccc(Nc2nc(Nc3cc(C4CC4)[nH]n3)c3ccccc3n2)cc1 [4ab, M-(3-aminopropyl)-4-((4-((5-cyclopropyl-1G-pyrazol-3-yl)amino)quinazolin-2-yl)amino)benzamide.trifluoroacetic acid] | 188% | 101% | 101% | 12400 nM | 5800 nM |  |  |  |  |  |  |  |  | IC50 [1]: 1100 nM; activity at 1 µM [1]: 36.2%
c1ccc(CNc2nc(Nc3cc(C4CC4)[nH]n3)c3ccccc3n2)cc1 [compound 4cc, N^2-benzyl-N^4-(5-cyclopropyl-1H-pyrazol-3-yl)quinazoline-2,4-diamine] |  |  |  | 1100 nM | 2800 nM | 298 nM | 22% | 363 nM | 65.5% |  |  |  |  | viability at 1.25 µM (in vitro): 98.5%
CN1CCN(c2nc(Nc3cc(C4CC4)[nH]n3)c3ccccc3n2)CC1 [compound 12a, M-(5-cyclopropyl-1G-pyrazol-3-yl)-2-(4-methylpiperazin-1-yl)quinazolin-4-amine] | 63.8% |  |  |  | 2400 nM |  | 26.3% |  | 26.2% | 82.3% | 697 nM |  |  | IC50 (pENSA; unit µM, read-out: IC50 pENSA): 1100 nM
OCCN1CCN(c2nc(Nc3cc(C4CC4)[nH]n3)c3ccccc3n2)CC1 [compound 12b, 2-(4-(4-((5-cyclopropyl-1G-pyrazol-3-yl)amino)quinazolin-2-yl)piperazin-1-yl)ethan-1-ol] | 41.7% |  |  | 1500 nM |  | 807 nM | 17.7% | 852 nM | 69.4% | 123% |  | 2600 nM |  | 
CC(C)(C)OC(=O)NCCNC(=O)c1ccc(Nc2nc(Nc3cc(C4CC4)[nH]n3)c3ccccc3n2)cc1 [compound 4w, sdqs-butyl (2-(4-((4-((5-cyclopropyl-1G-pyrazol-3-yl)amino)quinazolin-2-yl)amino)benzamido)ethyl)carbamate] | 135% | 63.4% | 72% | 1800 nM |  |  |  |  |  |  |  | 908 nM | 48.5% | IC50 [1, 10]: 1300 nM
c1ccc2c(Nc3cc(C4CC4)[nH]n3)nc(N3CCNCC3)nc2c1 [compound 11, M-(5-cyclopropyl-1G-pyrazol-3-yl)-2-(piperazin-1-yl)quinazolin-4-amine] | 66.4% |  |  | 3200 nM | 4100 nM |  | 18.1% |  | 104% | 98% |  |  |  | IC50 [1, 10]: 1000 nM
CC(C)C(=O)N1CC=C(c2nc(Nc3cc(C4CC4)[nH]n3)c3ccccc3n2)CC1 [compound 9b, 1-(4-(4-((5-cyclopropyl-1G-pyrazol-3-yl)amino)quinazolin-2-yl)-3,6-dihydropyridin-1(2G)-yl)-2-methylpropan-1-one] | 34.6% | 12.3% | 52.5% | 1000 nM |  | 136 nM |  | 832 nM |  |  |  | 316 nM | 21.7% | 
CNS(=O)(=O)c1ccc(Nc2nc(Nc3cc(C4CC4)[nH]n3)c3ccccc3n2)cc1 [compound 4h, 4-((4-((5-cyclopropyl-1G-pyrazol-3-yl)amino)quinazolin-2-yl)amino)-M-methylbenzenesulfonamide] | 17.1% |  |  |  |  | 843 nM | 17.6% | 408 nM | 41.8% | 4.7% | 758 nM | 57.2 nM |  | 
CC(C)S(=O)(=O)N1CC2CC1CN2c1nc(Nc2cc(C3CC3)[nH]n2)c2ccccc2n1 (centres unmarked) [compound 15h, M-(5-cyclopropyl-1G-pyrazol-3-yl)-2-(5-(isopropylsulfonyl)-2,5-diazabicyclo[2.2.1]heptan-2-yl)quinazolin-4-amine] | 51.7% |  |  | 1700 nM |  | 147 nM |  |  |  |  |  | 833 nM | 15.7% | viability at 1.1 µM (in vitro; mcf10a cells): 45%; viability at 1.1 µM [2]: 94.5%
COc1ccc(CNc2nc(Nc3cc(C4CC4)[nH]n3)c3ccccc3n2)cc1 [compound 4cd, N^4-(5-cyclopropyl-1H-pyrazol-3-yl)-N^2-(4-methoxybenzyl)quinazoline-2,4-diamine] |  |  |  | 2600 nM | 2700 nM | 476 nM | 20.3% | 543 nM | 83.8% |  |  |  |  | viability at 1.25 µM (in vitro): 83.9%
c1ccc2c(Nc3cc(C4CC4)[nH]n3)nc(N3CCC4(CC3)OCCO4)nc2c1 [compound 6a, M-(5-cyclopropyl-1G-pyrazol-3-yl)-2-(1,4-dioxa-8-azaspiro[4.5]decan-8-yl)quinazolin-4-amine] | 10.1% | 20.9% | 13.2% |  |  | 340 nM |  | 532 nM |  |  | 499 nM | 392 nM | 15.2% | 
c1ccc2c(Nc3cc(C4CC4)[nH]n3)nc(Nc3ccc4[nH]ncc4c3)nc2c1 [compound 4dd, N^4-(5-cyclopropyl-1H-pyrazol-3-yl)-N^2-(1H-indazol-5-yl)quinazoline-2,4-diamine] |  |  | 12.9% |  |  | 157 nM |  |  |  |  | 317 nM | 107 nM | 17.9% | IC50 (pENSA; unit µM, read-out: IC50 pENSA): 1500 nM; viability at 1 µM (in vitro): 3.7%
CCNC(=O)N1CC2CC1CN2c1nc(Nc2cc(C3CC3)[nH]n2)c2ccccc2n1 (centres unmarked) [compound 15a, 5-(4-((5-cyclopropyl-1G-pyrazol-3-yl)amino)quinazolin-2-yl)-M-ethyl-2,5-diazabicyclo[2.2.1]heptane-2-carboxamide] | 86.1% |  |  |  |  |  |  |  | 61% | 37% |  | 820 nM |  | IC50 [1, 10]: 1100 nM; activity at 1.25 µM ([1]; footnote a: concentration 1.25 µM, read-out: MASTL activity (%) HTRF): 61.1%
CCNC(=O)N1CCN(c2nc(Nc3cc(C4CC4)[nH]n3)c3ccccc3n2)CC1 [compound 12c, 4-(4-((5-cyclopropyl-1G-pyrazol-3-yl)amino)quinazolin-2-yl)-M-ethylpiperazine-1-carboxamide] | 75.8% |  |  |  | 1400 nM |  | 45.7% |  | 107% | 61.3% |  |  |  | 
O=C(O)Cc1ccc(Nc2nc(Nc3cc(C4CC4)[nH]n3)c3ccccc3n2)cc1 [compound 4s, 2-(4-((4-((5-cyclopropyl-1G-pyrazol-3-yl)amino)quinazolin-2-yl)amino)phenyl)acetic acid] | 89.1% | 113% | 102% |  |  |  |  | 89.1 nM |  |  | 102 nM | 113 nM | 56.2% | 
O=S(=O)(c1ccccc1)N1CC2CC1CN2c1nc(Nc2cc(C3CC3)[nH]n2)c2ccccc2n1 (centres unmarked) [compound 15m, M-(5-cyclopropyl-1G-pyrazol-3-yl)-2-(5-(phenylsulfonyl)-2,5-diazabicyclo[2.2.1]heptan-2-yl)quinazolin-4-amine] | 82.6% |  |  | 4200 nM | 1900 nM | 490 nM |  |  |  |  |  |  | 28.7% | viability at 1.1 µM (in vitro; mcf10a cells): 82.2%; viability at 1.1 µM [2]: 111%
